From PubChem BioAssay (NCI)
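Five concentrations, 48 hours, 96-well plates. Definition used: TGI = concentration required for complete inhibition of growth.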

Assays:
Test in all cases: NCI anticancer screen, dose series, 48 h
[1] = tested on: SN12C renal
[2] = tested on: HCC-2998 colon
[3] = tested on: MDA-N
[4] = tested on: M14 melanoma
[5] = tested on: SF-268 CNS
[6] = tested on: UACC-62 melanoma
[7] = tested on: OVCAR-8 ovarian
[8] = tested on: HCT-15 colon
[9] = tested on: TK-10 renal
[10] = tested on: NCI-H460 lung
[11] = tested on: UO-31 renal
[12] = tested on: 786-0 renal
[13] = tested on: SF-295 CNS
[14] = tested on: MDA-MB-435
[15] = tested on: ACHN renal
[16] = tested on: SF-539 CNS
[17] = tested on: CCRF-CEM leukemia
[18] = tested on: MCF7 breast
[19] = tested on: HL-60(TB) leukemia
[20] = tested on: SK-MEL-28 melanoma
[21] = tested on: EKVX NSCLC
[22] = tested on: U251 CNS
[23] = tested on: NCI-H23 lung
[24] = tested on: MDA-MB-231 breast
[25] = tested on: COLO 205 colon
[26] = tested on: A549 NSCLC
[27] = tested on: SNB-75 CNS
[28] = tested on: HOP-62 NSCLC
[29] = tested on: MOLT-4 leukemia
[30] = tested on: NCI-H226 lung
[31] = tested on: RXF 393 renal
[32] = tested on: CAKI-1 renal
[33] = tested on: SNB-19 CNS
[34] = tested on: HOP-92 NSCLC
[35] = tested on: SW-620 colon
[36] = tested on: HCT-116 colon
[37] = tested on: DU-145 prostate
[38] = tested on: OVCAR-3 ovarian
[39] = tested on: OVCAR-4 ovarian
[40] = tested on: PC-3 prostate
[41] = tested on: SK-OV-3 ovarian
[42] = tested on: UACC-257 melanoma
[43] = tested on: K-562 leukemia
[44] = tested on: BT-549 breast
[45] = tested on: KM12 colon
[46] = tested on: NCI/ADR-RES ovarian
[47] = tested on: HT29 colon
[48] = tested on: RPMI-8226 leukemia
[49] = tested on: SK-MEL-2 melanoma
[50] = tested on: HS 578T breast
[51] = tested on: MALME-3M melanoma
[52] = tested on: SK-MEL-5 melanoma
[53] = tested on: OVCAR-5 ovarian
[54] = tested on: LOX IMVI melanoma

Measured: TGI

CCOC(=O)/C=C1/Nc2cc(F)c(F)cc2NC1=O
> 100 µM: all assays above
